The record followed here is patent publication US10166253B2, “Positively charged co-polymers for use as antimicrobial agents” (priority 2014, dated 2019).

Assay [1] deals with P. aeruginosa (Strain PAO1). The experiment in a line: Antimicrobial susceptibility testing by flow cytometry-based assay (LIVE/DEAD BacLight, Syto9/PI). It counts as cell-based. As for the experimental part:
(§1) E. coli (strain NCTC 10418), P. aeruginosa (Strain PAO1) and S. aureus (Wood 46, NCTC 7121) cells were grown in 5 mL of Todd Hewitt Broth medium (THB; Sigma-Aldrich). Bacteria were cultivated at 37° C. for 15 h in a 15 mL tube to obtain late-log phase cultures. Bacterial cultures were pelleted at 3096 g for 10 minutes; the supernatant was discarded and bacteria were resuspended in phosphate-buffered saline (PBS) supplemented with 40 mg/ml human albumin to mimic chemical properties of blood. Bacteria were diluted to a standardized inoculum of 10^9 CFU/mL.
(§2) Bacteria were treated with GA, LL-37, Piperacillin/Tazobactam or Vancomycin in varying concentrations, i.e. 50, 25, 10 or 2 μg/ml, for 30 minutes. As a positive control, bacteria were treated with 7% isopropanol. Hereafter, bacteria were pelleted at 3096 g for 10 minutes; the supernatant was discarded and bacteria were resuspended in PBS. The antimicrobial effect was tested in a well-established and widely used flow cytometry-based assay (LIVE/DEAD® BacLight™ Bacterial Viability and Counting Kit (L34856), Molecular Probes/Invitrogen) according to manufacturer's manual.
(§3) For each bacteria, the flow cytometry-based assay was repeated four times.
The antibacterial effect of GA on the gram-negative strain P. aeruginosa was tested by carrying out an experiment as described in Example 1. […] Although the untreated control stained positive for PI, this seemed to be explained by the capability of intact P. aeruginosa to secrete large quantities of DNA to the extracellular milieu.
In general terms: In flow cytometry, cells or beads pass a laser one at a time.

Assay [2] has as its system P. aeruginosa (PAO1). Nature of the assay: Antimicrobial activity in human serum and plasma (flow cytometry, PI/Syto9). It counts as cell-based, Pseudomonas aeruginosa. The settings on record: P. aeruginosa PAO1 ~10^8 cells/ml. The source says: It has been reported that the antimicrobial activity of antimicrobial peptides are inhibited by their binding to different factors in human plasma (Wang, Y., et al., Apolipoprotein A-I binds and inhibits the human antibacterial/cytotoxic peptide LL-37. J Biol Chem, 1998. 273(50): p. 33115-8), serum and is influenced by pH and ion composition (Johansson, J., et al., Conformation-dependent antibacterial activity of the naturally occurring human peptide LL-37. J Biol Chem, 1998. 273(6): p. 3718-24). To investigate the potential of GA for systemic application, bacterial isolates of P. aeruginosa (PAO1, ˜10^8 cells/ml) were incubated with increasing concentrations of GA and compared to LL-37. Bacterial survival and enumeration was evaluated by a flow cytometry bead standard and stained with propidium iodide and Syto9 following procedures as previously described above in the antimicrobial susceptibility testing by flow cytometry-based assay. […] All experiments were performed as four replicates.

Assay [3] relates to E. coli (NCTC 10418). Nature of the assay: Transmission electron microscopy of treated bacteria. The format is cell-based, Escherichia coli. The source says: (§4) Transmission electron microscopy (TEM) was applied to examine the ultrastructural changes in P. aeruginosa (PAO1), S. aureus (Wood 46) and E. coli (NCTC 10418) induced after treatment with GA and LL-37. […] This critical alteration in the outer membrane of E. coli has previously been described as a disintegration of the outer membrane into micelles and vesicle-like structures (Meincken, M., D. L. Holroyd, and M. Rautenbach, Atomic force microscopy study of the effect of antimicrobial peptides on the cell envelope of Escherichia coli. Antimicrob Agents Chemother, 2005. 49(10): p. 4085-92). […] After incubation with LL-37 and GA, we found burst cells, but this observation was most significant after treatment with LL-37 (FIG. 9). Scale bar, 0.5 μm. Experiments were performed as 2 replicates.

Assay [4] has as its system S. aureus (Wood 46, NCTC 7121). The experiment in a line: Antimicrobial susceptibility testing by flow cytometry-based assay (LIVE/DEAD BacLight, Syto9/PI). It counts as cell-based, Staphylococcus aureus. The settings on record: 30 minutes. As for the experimental part: as §1, §2, §3
In assay [5] the test system is S. aureus (Wood 46). Nature of the assay: Transmission electron microscopy of treated bacteria. The format is cell-based, Staphylococcus aureus.
Excerpt: as §4

In assay [6] the test system is E. coli (strain NCTC 10418). The experiment in a line: Antimicrobial susceptibility testing by flow cytometry-based assay (LIVE/DEAD BacLight, Syto9/PI). The format is cell-based, Escherichia coli. As to the method:
as §1, §2, §3
Flow cytometry was used to determine the antimicrobial activity of GA and LL-37. The flow cytometry diagrams show the results after treatment with 50 μg/ml LL-37, GA, piperacillin/tazobactam, 7% isopropanol and the untreated control. […] This gating strategy was primarily applied to avoid counting beads in the upper right corner of the FS-SS. […] Thus, a two-color fluorescence assay of bacterial viability, including PI and Syto9 staining, was applied. Syto9 stains all bacteria in a population, i.e. those with intact and those with damaged membranes. In contrast, propidium iodide (PI) penetrates only bacteria with damaged membranes, thereby making quantification of bacterial viability possible.

The subject of assay [7] is P. aeruginosa (PAO1). Nature of the assay: Transmission electron microscopy of treated bacteria. It counts as cell-based, Pseudomonas aeruginosa.
Excerpt: as §4

The mark [8] stands for this setting: within the 30 minutes of treatment.
Where [9] appears, read: positive control, 7% isopropanol.

Regarding `CC[C@H](C)[C@H](NC(=O)[C@H](CCCCN)NC(=O)[C@H](CCC(=O)O)NC(=O)[C@H](CCCCN)NC(=O)[C@H](CO)NC(=O)[C@H](CCCCN)NC(=O)[C@H](CCCNC(=N)N)NC(=O)[C@H](Cc1ccccc1)NC(=O)[C@H](Cc1ccccc1)NC(=O)[C@H](CC(=O)O)NC(=O)CNC(=O)[C@H](CC(C)C)NC(=O)[C@@H](N)CC(C)C)C(=O)NCC(=O)N[C@@H](CCCCN)C(=O)N[C@@H](CCC(=O)O)C(=O)N[C@@H](Cc1ccccc1)C(=O)N[C@@H](CCCCN)C(=O)N[C@@H](CCCNC(=N)N)C(=O)N[C@H](C(=O)N[C@H](C(=O)N[C@@H](CCC(N)=O)C(=O)N[C@@H](CCCNC(=N)N)C(=O)N[C@H](C(=O)N[C@@H](CCCCN)C(=O)N[C@@H](CC(=O)O)C(=O)N[C@@H](Cc1ccccc1)C(=O)N[C@@H](CC(C)C)C(=O)N[C@@H](CCCNC(=N)N)C(=O)N[C@@H](CC(N)=O)C(=O)N[C@@H](CC(C)C)C(=O)N[C@H](C(=O)N1CCC[C@H]1C(=O)N[C@@H](CCCNC(=N)N)C(=O)N[C@H](C(=O)N[C@@H](CCC(=O)O)C(=O)N[C@@H](CO)C(=O)O)[C@@H](C)O)C(C)C)[C@@H](C)CC)C(C)C)[C@@H](C)CC` [LL-37], the figures for the “antimicrobial activity (in words)” value in assay [1] (setting [8]) and in assay [4] were “more potent than when treating bacteria with 7% isopropanol” and “more potent than Vancomycin”, respectively. The decreased bacterial inoculum in assay [1] (setting [8]) was ~75%. Further, the “increased PI positivity” value in assay [1] (within the 30 minutes of treatment (FIG. 4 overview)) is reported as ~50%. Moreover, in assay [2], the “antimicrobial activity in human plasma and serum (in words)” value is “retains antimicrobial activity”. Moreover, the “ultrastructural changes (TEM, in words)” value in assay [3] was “Signs of damage to the bacterial membrane”; in assay [5], “burst cells”; in assay [7], “dramatically reduced number of P. aeruginosa”. Also, the “percentage of bacteria testing positive for PI” value (from here on “percentage … for PI”) is recorded as 31.9% in assay [4] and 17.8% in assay [6] (50 μg/ml, 30 minutes). Further, the “percentage of bacteria testing positive for Syto-9” value (from here on “percentage … for Syto-9”) in assay [6] (50 μg/ml, 30 minutes) turned out to be 75.1%.
Regarding `CN[C@H](CC(C)C)C(=O)N[C@H]1C(=O)N[C@@H](CC(N)=O)C(=O)N[C@H]2C(=O)N[C@H]3C(=O)N[C@H](C(=O)N[C@H](C(=O)O)c4cc(O)cc(O)c4-c4cc3ccc4O)[C@H](O)c3ccc(c(Cl)c3)Oc3cc2cc(c3O[C@@H]2O[C@H](CO)[C@@H](O)[C@H](O)[C@H]2O[C@H]2C[C@](C)(N)[C@H](O)[C@H](C)O2)Oc2ccc(cc2Cl)[C@H]1O` [Vancomycin], in assay [4], the “antimicrobial activity (in words)” value is “comparable to the one obtained for LL-37”.
`CC(C)O` [isopropanol]: in assay [6] (setting [9]), the “percentage … for PI” value was found to be 32.2% and the “percentage … for Syto-9” value was found to be 61.7%.
As to Piperacillin/Tazobactam, the PI positivity entry in assay [1] (50 μg/ml, 30 minutes) is reported as “about 30%”. Besides, the “antimicrobial activity (in words)” value in assay [1] (setting [8]) is reported as “no antimicrobial activity”. Also, in assay [6] (50 μg/ml, 30 minutes), the “percentage … for PI” value is 10% and the “percentage … for Syto-9” value came out at 86.8%. Further, the “antimicrobial activity (in words)” value in assay [6] (setting [8]) is reported as “no antimicrobial activity”.
